Measured values taken from US11447493B2 (Kinnate Biopharma Inc., priority 2018, dated 2022).

Key:
Test in all cases: Radiometric protein kinase assay (33PanQinase), Assay Condition A (thiol containing)
Assay type in all cases: biochemical
[1] = target: CDK12 wt/CycK (Homo sapiens (Human), UniProt Q9NYV4); conditions: thiol containing (1.2 mM DTT), ATP 0.3 μM
Protocol: (§1) The IC50 profile of test compounds was determined using three protein kinases.
(§2) The compounds were provided as pre-weighed powders in vials. The compounds were dissolved to 1×10^−02M by adding DMSO. 100 μl of each of the resulting stock solutions were transferred into column 2 of four 96 well “master plates”.
(§3) Prior to testing, the 1×10^−02M stock solutions in column 2 of the master plates were subjected to a serial, semi-logarithmic dilution using 100% DMSO as a solvent. […] Column 1 and 7 were filled with 100% DMSO as controls. Subsequently, 2×10 μl from each well of the serial diluted copy plates were aliquoted with a 96 channel pipettor into two identical sets of “compound dilution plates”.
(§4) In the process, 90 μl H2O were added to each well of a set of compound dilution plates. To minimize potential precipitation, the H2O was added to each plate only a few minutes before the transfer of the compound solutions into the assay plates. Each plate was shaken thoroughly, resulting in a “compound dilution plate/10% DMSO”.
(§5) For the assays, 5 μl solution from each well of the compound dilution plates/10% DMSO were transferred into the assay plates. The final volume of the assay was 50 μl. All compounds were tested at 10 final assay concentrations in the range from 1×10^−04M to 3×10^−09M, in singlicate. The final DMSO concentration in the reaction cocktails was 1% in all cases.
(§6) All protein kinases were expressed in Sf9 insect cells or in E. coli as recombinant GST-fusion proteins or His-tagged proteins, either as full-length or enzymatically active fragments. All kinases were produced from human cDNAs and purified by either GSH-affinity chromatography or immobilized metal. Affinity tags were removed from a number of kinases during purification. The purity of the protein kinases was examined by SDS-PAGE/Coomassie staining, the identity was checked by mass spectroscopy.
(§7) A radiometric protein kinase assay (^33PanQinase® Activity Assay) was used for measuring the kinase activity of the three protein kinases. All kinase assays were performed in 96-well FlashPlates™ from PerkinElmer (Boston, Mass., USA) in a 50 μl reaction volume. The reaction cocktail was pipetted in four steps in the following order: • 20 μl of assay buffer (standard buffer) • 5 μl of ATP solution (in H2O) • 5 μl of test compound (in 10% DMSO) • 20 μl enzyme/substrate mix
(§8) The reaction cocktails were incubated at 30° C. for 60 minutes. The reaction was stopped with 50 μl of 2% (v/v) H3PO4, plates were aspirated and washed two times with 200 μl 0.9% (w/v) NaCl. Incorporation of ^33Pi was determined with a microplate scintillation counter (Microbeta, Wallac). All assays were performed with a BeckmanCoulter/SAGIAN™ Core System.
(§9) The median value of the counts in column 1 (n=8) of each assay plate was defined as “low control”. This value reflects unspecific binding of radioactivity to the plate in the absence of a protein kinase but in the presence of the substrate. The median value of the counts in column 7 of each assay plate (n=8) was taken as the “high control”, i.e. full activity in the absence of any inhibitor. The difference between high and low control was taken as 100% activity.
(§10) As part of the data evaluation the low control value from a particular plate was subtracted from the high control value as well as from all 80 “compound values” of the corresponding plate. The residual activity (in %) for each well of a particular plate was calculated by using the following formula: Res. Activity (%)=100×[(cpm of compound−low control)/(high control−low control)]
(§11) The residual activities for each concentration and the compound IC50 values were calculated using Quattro Workflow V3.1.1 (Quattro Research GmbH, Munich, Germany). […] The fitting method used was a least-squares fit.

[2] = target: CDK7/CycH/MAT1 (Homo sapiens (Human), UniProt P50613); conditions: thiol containing (1.2 mM DTT), ATP 3.0 μM
Protocol: as §1, §2, §3, §4, §5, §6, §7, §8, §9, §10, §11

[3] = target: CDK2/CycA2 (Homo sapiens (Human), UniProt P24941); conditions: thiol containing (1.2 mM DTT), ATP 0.3 μM
Protocol: as §1, §2, §3, §4, §5, §6, §7, §8, §9, §10, §11

Chain of CDK12 wt/CycK (Q9NYV4 whole entry): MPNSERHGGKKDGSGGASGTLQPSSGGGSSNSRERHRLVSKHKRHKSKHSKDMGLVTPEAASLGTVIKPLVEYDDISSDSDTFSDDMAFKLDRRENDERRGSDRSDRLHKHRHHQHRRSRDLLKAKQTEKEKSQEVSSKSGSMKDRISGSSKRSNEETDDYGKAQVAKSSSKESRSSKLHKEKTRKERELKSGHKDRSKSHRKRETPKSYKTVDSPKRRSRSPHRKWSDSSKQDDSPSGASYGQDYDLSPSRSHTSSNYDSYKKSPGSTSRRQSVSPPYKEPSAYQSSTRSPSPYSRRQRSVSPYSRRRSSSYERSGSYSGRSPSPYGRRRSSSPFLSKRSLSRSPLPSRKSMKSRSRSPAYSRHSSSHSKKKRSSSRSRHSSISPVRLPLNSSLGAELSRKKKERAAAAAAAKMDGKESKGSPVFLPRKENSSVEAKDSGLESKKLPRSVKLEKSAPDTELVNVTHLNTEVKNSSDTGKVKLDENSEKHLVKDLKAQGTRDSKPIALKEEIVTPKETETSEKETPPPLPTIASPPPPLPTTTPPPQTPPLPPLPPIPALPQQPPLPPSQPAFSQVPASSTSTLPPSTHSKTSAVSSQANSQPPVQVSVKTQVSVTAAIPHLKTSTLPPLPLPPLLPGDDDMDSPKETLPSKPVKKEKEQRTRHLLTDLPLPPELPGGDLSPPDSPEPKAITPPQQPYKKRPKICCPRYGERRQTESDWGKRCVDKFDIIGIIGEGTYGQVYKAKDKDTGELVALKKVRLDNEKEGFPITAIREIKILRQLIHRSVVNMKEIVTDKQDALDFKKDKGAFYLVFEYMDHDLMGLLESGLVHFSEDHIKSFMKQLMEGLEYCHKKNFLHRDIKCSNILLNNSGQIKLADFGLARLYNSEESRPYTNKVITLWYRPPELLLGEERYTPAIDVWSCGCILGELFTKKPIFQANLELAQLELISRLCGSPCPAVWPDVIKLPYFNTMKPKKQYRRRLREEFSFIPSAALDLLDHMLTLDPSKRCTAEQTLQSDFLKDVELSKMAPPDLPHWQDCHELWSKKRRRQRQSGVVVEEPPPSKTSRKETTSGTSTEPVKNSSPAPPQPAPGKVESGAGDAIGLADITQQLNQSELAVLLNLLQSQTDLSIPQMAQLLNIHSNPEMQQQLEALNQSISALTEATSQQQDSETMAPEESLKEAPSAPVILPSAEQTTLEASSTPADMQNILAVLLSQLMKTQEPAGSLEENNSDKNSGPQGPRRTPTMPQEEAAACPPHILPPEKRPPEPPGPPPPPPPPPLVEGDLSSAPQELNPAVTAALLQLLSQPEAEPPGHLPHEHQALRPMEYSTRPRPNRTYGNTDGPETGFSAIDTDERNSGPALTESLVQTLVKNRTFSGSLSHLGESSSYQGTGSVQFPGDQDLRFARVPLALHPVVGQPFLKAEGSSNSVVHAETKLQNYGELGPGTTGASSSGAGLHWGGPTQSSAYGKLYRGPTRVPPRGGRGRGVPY
Chain of CDK12 wt/CycK (O75909 whole entry partner): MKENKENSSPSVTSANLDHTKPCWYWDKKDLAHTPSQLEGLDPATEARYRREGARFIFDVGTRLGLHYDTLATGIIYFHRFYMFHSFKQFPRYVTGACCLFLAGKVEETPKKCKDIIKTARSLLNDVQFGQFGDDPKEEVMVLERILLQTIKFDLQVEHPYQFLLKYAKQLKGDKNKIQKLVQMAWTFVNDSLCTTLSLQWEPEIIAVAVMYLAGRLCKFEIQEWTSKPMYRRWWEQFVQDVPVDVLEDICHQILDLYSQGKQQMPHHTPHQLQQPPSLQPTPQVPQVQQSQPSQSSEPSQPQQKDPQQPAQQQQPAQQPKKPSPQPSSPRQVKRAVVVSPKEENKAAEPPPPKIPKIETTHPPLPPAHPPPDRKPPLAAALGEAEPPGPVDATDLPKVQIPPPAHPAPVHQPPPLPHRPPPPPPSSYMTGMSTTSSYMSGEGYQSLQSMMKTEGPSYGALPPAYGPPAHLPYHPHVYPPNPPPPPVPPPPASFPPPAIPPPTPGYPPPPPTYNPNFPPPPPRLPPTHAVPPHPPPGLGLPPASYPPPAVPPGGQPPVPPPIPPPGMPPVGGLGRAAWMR
Chain of CDK7/CycH/MAT1 (P50613 whole entry): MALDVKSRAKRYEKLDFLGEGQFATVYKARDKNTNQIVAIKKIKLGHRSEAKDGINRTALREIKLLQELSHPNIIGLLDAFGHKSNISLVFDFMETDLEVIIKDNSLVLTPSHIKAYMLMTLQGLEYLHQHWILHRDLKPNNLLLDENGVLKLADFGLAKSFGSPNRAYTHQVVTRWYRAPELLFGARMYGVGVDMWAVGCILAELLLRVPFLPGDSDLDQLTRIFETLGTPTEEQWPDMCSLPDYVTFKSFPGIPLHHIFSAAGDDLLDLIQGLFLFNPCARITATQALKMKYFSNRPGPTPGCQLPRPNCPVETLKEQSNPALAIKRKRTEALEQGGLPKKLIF
Chain of CDK7/CycH/MAT1 (P51946 whole entry partner): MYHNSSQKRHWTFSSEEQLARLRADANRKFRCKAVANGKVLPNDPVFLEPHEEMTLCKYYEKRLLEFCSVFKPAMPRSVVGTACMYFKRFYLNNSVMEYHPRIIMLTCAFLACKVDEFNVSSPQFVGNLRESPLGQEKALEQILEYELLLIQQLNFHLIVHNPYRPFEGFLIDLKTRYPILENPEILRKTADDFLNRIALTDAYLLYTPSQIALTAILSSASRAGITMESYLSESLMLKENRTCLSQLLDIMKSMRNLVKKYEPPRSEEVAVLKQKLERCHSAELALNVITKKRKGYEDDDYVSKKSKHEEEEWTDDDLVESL
Chain of CDK7/CycH/MAT1 (P51948 whole entry partner): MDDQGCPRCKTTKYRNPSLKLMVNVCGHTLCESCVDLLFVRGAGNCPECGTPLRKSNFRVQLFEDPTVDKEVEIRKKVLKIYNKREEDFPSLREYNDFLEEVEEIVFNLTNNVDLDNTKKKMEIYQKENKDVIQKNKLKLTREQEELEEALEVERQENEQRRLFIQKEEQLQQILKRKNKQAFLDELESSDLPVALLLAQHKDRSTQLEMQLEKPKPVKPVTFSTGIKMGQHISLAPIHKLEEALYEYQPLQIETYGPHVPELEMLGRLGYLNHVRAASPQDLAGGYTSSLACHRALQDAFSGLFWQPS

SMILES	IC50 [1] [µM]	IC50 [2] [µM]	IC50 [3] [µM]
CCC(=O)Nc1ccc(C(=O)N2CCC[C@@H](Nc3ncc4ccc(OC)cc4n3)C2)cc1 [Example 20, (R)-N-(4-(3-((7-methoxyquinazolin-2-yl)amino)piperidine-1-carbonyl)phenyl)propionamide]	30 to 100	30 to 100	30 to 100
CCC(=O)Nc1ccc(C(=O)N2CCC[C@@H](Nc3ncc4ccc(S(C)(=O)=O)cc4n3)C2)cc1 [Example 21, (R)-N-(4-(3-((7-(methylsulfonyl)quinazolin-2-yl)amino)piperidine-1-carbonyl)phenyl)propionamide]	10 to 30	30 to 100	10 to 30
CCC(=O)Nc1ccc(C(=O)N2CCC[C@@H](Nc3ncc4ccc(Cl)cc4n3)C2)cc1 [Example 22, (R)-N-(4-(3-((7-chloroquinazolin-2-yl)amino)piperidine-1-carbonyl)phenyl)propionamide]	30 to 100	30 to 100	30 to 100
CCC(=O)Nc1ccc(C(=O)N2CCC[C@@H](Nc3ncc4ccc(F)cc4n3)C2)cc1 [Example 23, (R)-N-(4-(3-((7-fluoroquinazolin-2-yl)amino)piperidine-1-carbonyl)phenyl)propionamide]	30 to 100	30 to 100	30 to 100
CCC(=O)Nc1ccc(C(=O)N2CCC[C@@H](Nc3ncc4ccc(=O)n(C(C)C)c4n3)C2)cc1 [Example 24, (R)-N-(4-(3-((8-isopropyl-7-oxo-7,8-dihydropyrido[2,3-d]pyrimidin-2-yl)amino)piperidine-1-carbonyl)phenyl)propionamide]	10 to 30	30 to 100	10 to 30
C=CC(=O)Nc1ccc(C(=O)N2CC[C@@H](Nc3ncc4cc(Cl)ccc4n3)C2)cc1 [Example 25, (R)-N-(4-(3-((6-chloroquinazolin-2-yl)amino)pyrrolidine-1-carbonyl)phenyl)acrylamide]	≤ 0.1	1 to 10	0.1 to 1
C=CC(=O)Nc1ccc(C(=O)N2CC[C@@H](Nc3ncc4cc(OC)ccc4n3)C2)cc1 [Example 29, (R)-N-(4-(3-((6-methoxyquinazolin-2-yl)amino)pyrrolidine-1-carbonyl)phenyl)acrylamide]	0.1 to 1	30 to 100	10 to 30
C=CC(=O)Nc1ccc(C(=O)N2CC[C@@H](Nc3ncc4cc(C)ccc4n3)C2)cc1 [Example 30, (R)-N-(4-(3-((6-methylquinazolin-2-yl)amino)pyrrolidine-1-carbonyl)phenyl)acrylamide]	0.1 to 1	1 to 10	1 to 10
C=CC(=O)Nc1ccc(C(=O)N2CC[C@@H](Nc3ncc4ccncc4n3)C2)cc1 [Example 31, (R)-N-(4-(3-(pyrido[3,4-d]pyrimidin-2-ylamino)pyrrolidine-1-carbonyl)phenyl)acrylamide]	≤ 0.1	1 to 10	0.1 to 1
C=CC(=O)Nc1ccc(C(=O)N2CC[C@@H](Nc3ncc4ccc(C)cc4n3)C2)cc1 [Example 32, (R)-N-(4-(3-((7-methylquinazolin-2-yl)amino)pyrrolidine-1-carbonyl)phenyl)acrylamide]	≤ 0.1	1 to 10	0.1 to 1
C=CC(=O)Nc1ccc(C(=O)N2CC[C@@H](Nc3ncc4ccc(F)cc4n3)C2)cc1 [Example 35, (R)—N-(4-(3-((7-fluoroquinazolin-2-yl)amino)pyrrolidine-1-carbonyl)phenyl)acrylamide]	≤ 0.1	1 to 10	1 to 10
C=CC(=O)Nc1ccc(C(=O)N2CC[C@@H](Nc3ncc4ccc(Cl)cc4n3)C2)cc1 [Example 36, (R)—N-(4-(3-((7-chloroquinazolin-2-yl)amino)pyrrolidine-1-carbonyl)phenyl)acrylamide]	0.1 to 1	1 to 10	0.1 to 1
C=CC(=O)Nc1ccc(C(=O)N2CC[C@@H](Nc3ncc4ccc(C(=O)O)cc4n3)C2)cc1 [Example 38, (R)-2-((1-(4-acrylamidobenzoyl)pyrrolidin-3-yl)amino)quinazoline-7-carboxylic Acid]	≤ 0.1	0.1 to 1	≤ 0.1
C=CC(=O)Nc1ccc(C(=O)N2CC[C@@H](Nc3ncc4ccc(C(N)=O)cc4n3)C2)cc1 [Example 39, (R)-2-((1-(4-acrylamidobenzoyl)pyrrolidin-3-yl)amino)quinazoline-7-carboxamide]	≤ 0.1	0.1 to 1	≤ 0.1
C=CC(=O)Nc1ccc(C(=O)N2CC[C@@H](Nc3ncc4ccc(C(=O)NC)cc4n3)C2)cc1 [Example 40, (R)-2-((1-(4-acrylamidobenzoyl)pyrrolidin-3-yl)amino)-N-methylquinazoline-7-carboxamide]	≤ 0.1	0.1 to 1	≤ 0.1
C=CC(=O)Nc1ccc(C(=O)N2CC[C@@H](Nc3ncc4ccc(C(=O)N(C)C)cc4n3)C2)cc1 [Example 41, (R)-2-((1-(4-acrylamidobenzoyl)pyrrolidin-3-yl)amino)-N,N-dimethylquinazoline-7-carboxamide]	≤ 0.1	1 to 10	0.1 to 1
C=CC(=O)Nc1ccc(C(=O)N2CC[C@@H](Nc3ncc4ccc(=O)[nH]c4n3)C2)cc1 [Example 42, (R)—N-(4-(3-((7-oxo-7,8-dihydropyrido[2,3-d]pyrimidin-2-yl)amino)pyrrolidine-1-carbonyl)phenyl)acrylamide]	≤ 0.1	1 to 10	0.1 to 1
CCC(=O)Nc1ccc(C(=O)N2CC[C@@H](Nc3cc4ccccc4cn3)C2)cc1 [Example 45, (R)—N-(4-(3-(isoquinolin-3-ylamino)pyrrolidine-1-carbonyl)phenyl)propionamide]	0.1 to 1	1 to 10	1 to 10
CCC(=O)Nc1ccc(C(=O)N2CC[C@@H](Nc3ncc4cc(F)ccc4n3)C2)cc1 [Example 46, (R)—N-(4-(3-((6-fluoroquinazolin-2-yl)amino)pyrrolidine-1-carbonyl)phenyl)propionamide]	0.1 to 1	1 to 10	1 to 10
CCC(=O)Nc1ccc(C(=O)N2CC[C@@H](Nc3ncc4cc(Cl)ccc4n3)C2)cc1 [Example 47, (R)—N-(4-(3-((6-chloroquinazolin-2-yl)amino)pyrrolidine-1-carbonyl)phenyl)propionamide]	0.1 to 1	1 to 10	1 to 10
CCC(=O)Nc1ccc(C(=O)N2CC[C@@H](Nc3ncc4cc(OC)ccc4n3)C2)cc1 [Example 48, (R)—N-(4-(3-((6-methoxyquinazolin-2-yl)amino)pyrrolidine-1-carbonyl)phenyl)propionamide]	1 to 10	30 to 100	10 to 30
CCC(=O)Nc1ccc(C(=O)N2CC[C@@H](Nc3ncc4cc(C)ccc4n3)C2)cc1 [Example 49, (R)—N-(4-(3-((6-methylquinazolin-2-yl)amino)pyrrolidine-1-carbonyl)phenyl)propionamide]	1 to 10	1 to 10	1 to 10
CCC(=O)Nc1ccc(C(=O)N2CC[C@@H](Nc3ncc4ccncc4n3)C2)cc1 [Example 50, (R)—N-(4-(3-(pyrido[3,4-d]pyrimidin-2-ylamino)pyrrolidine-1-carbonyl)phenyl)propionamide]	0.1 to 1	1 to 10	1 to 10
CCC(=O)Nc1ccc(C(=O)N2CC[C@@H](Nc3ncc4ccc(OC)cc4n3)C2)cc1 [Example 51, (R)—N-(4-(3-((7-methoxyquinazolin-2-yl)amino)pyrrolidine-1-carbonyl)phenyl)propionamide]	0.1 to 1	0.1 to 1	0.1 to 1
